In US4122184A, “Benzimidazole insecticides” (priority 1977, dated 1978):

Legend:
Two-spotted Spider Mite = Two-spotted Spider Mite test; format: in vivo, Tetranychus urticae (Acarina); settings: 48 h
Experimental: The procedure in this test is the same as that in the previous aphid test, except that about 100 two-spotted spider mites from a stock colony raised on squash plants are transferred to a cut squash cotyledon. The mortality is estimated 48 hours after spraying. The same rating scale is used.

House Fly [1] = assay: Housefly (Contact) Test; format: in vivo, Musca domestica (Diptera); settings: 24 h
Experimental: Rearing cages containing four-day old adult house flies are chilled at 35°-40° F. for about 1 hour. One hundred flies are transferred from the rearing cage to each test cage using a small scoop. The caged flies are kept for 1-2 hours at 70°-80° F. The cages are sprayed in the same manner as described for the milkweed bug with 5 ml. of the test formulation. Two unsprayed cages are held as controls and two cages are sprayed with a 50 ppm DDT formulation as a reference standard. Mortality counts are made 24 hours after spraying. […] The same rating scale is employed as heretofore.

Oriental Cockroach = assay: Oriental Roach Test; format: in vivo, Blatta orientalis (Orthoptera); settings: 24 h
Experimental: A rearing pan of late instar (3-4 months old) roaches is placed in a cold room for about 1 hour. Ten nymphs are taken from the pan and placed in each cage and the caged insects are kept at 70°-80° F. for 1 hour. The test cages are then sprayed in the manner indicated above in the milkweed bug test using 5 ml. of a formulation containing a specified amount of the insecticide. The test cages are held for 72 hours during which time the cockroaches are neither fed nor watered. Controls consist of 2 unsprayed cages, two cages sprayed with the formulation alone and 2 cages with a formulation containing 1000 ppm of heptachlor. Mortality counts are made 24 hours after spraying by shaking the cages lightly. All cockroaches remaining in the bottom are counted as dead.

Mexican Bean Beetle = Mexican Bean Beetle Test; format: in vivo, Epilachna varivestis (Coleoptera); settings: 48 h
Experimental: Cuttings of four six-day old Bountiful snap bean plants containing two leaves with approximately 5 square inches of leaf surface, are placed in water. The leaves are sprayed to wetting with about 5-10 ml. of a formulation containing a pre-determined level of the test compound. Half of the formulation is sprayed on the top surface and half on the bottom surface of the leaf using a DeVilbiss atomizer at 10 psi held at a distance of about 18 inches from the leaf. After the leaves have dried, they are cut from the stem and placed separately in petri dishes. Ten third instar, nonmolting Mexican bean beetle larvae grown on Bountiful snap beans are placed on each leaf. Controls consist of two leaves sprayed with 5 ml. of a 500 ppm malathion formulation (reference standard), two leaves sprayed with the formulation without the active ingredient and two leaves are held as untreated controls. After 48 hours, a mortality count is made and the amount of feeding noted. Moribund larvae are counted as dead.

Southern Armyworm = Southern Armyworm Test; format: in vivo, Prodenia eridania (Lepidoptera); settings: 500 ppm, 48 h
Experimental: Ten uniform Southern armyworm larvae about 1-1.5 cm. in length, grown on Henderson lima beans, are placed on excized bean leaves in petri dishes. The bean leaves are obtained and sprayed with the insecticide in the same way as are the snap bean leaves in the Mexican bean beetle test. The reference standards in this instance are leaves sprayed with 5 ml. 100 ppm DDT solution. Mortality counts are made 48 hours after spraying and again moribund larvae are counted as dead. Missing larvae which have probably been eaten are considered alive. The same rating scale is used as in the Mexican bean beetle test.

Milkweed Bug = Milkweed Bug Test; format: in vivo, Oncopeltis fasciatus (Hemiptera); settings: 48 h
Experimental: Ten adult milkweed bugs are chilled and placed in a test cage. The cages containing the bugs are sprayed with 5 ml. of a test formulation containing a pre-determined amount of the insecticide, using a DeVilbiss atomizer at 10 psi held 33 inches from the top of the cage. After the cage has been allowed to dry, the bugs are fed and watered for 48 hours. A formulation containing 500 ppm of malathion is used as a reference standard and two unsprayed cages are kept as controls. Mortality counts are made 48 hours after spraying. Moribund adults are considered dead. The same rating scale is employed as before.

House Fly [2] = assay: Housefly (Stomach) Test; format: in vivo, Musca domestica (Diptera); settings: 24 h
Experimental: Ten chilled house flies are taken from the rearing cage and placed in a covered petri dish. Sugar cubes treated with 0.2 ml. of a formulation containing a specified level of the insecticide are placed in the petri dish one hour after the flies have been removed from the chill room. Controls consist of sugar cubes treated with 0.2 ml. of deionized water and cubes treated with 0.2 ml. of a formulation containing 500 ppm of malathion. Mortality counts are made 24 hours later. The same rating scale is used as before.

Boll Weevil = Boll Weevil Test; format: in vivo, Anthonomus grandis (Coleoptera); settings: 48 h
Description: The procedure is identical to that employed for the Mexican bean beetle and the Southern armyworm, except that 10 adult boll weevils are placed on cotton leaves that have been dipped into formulations of the test compounds. The same rating scale is used.

Melon Aphid = Melon Aphid Test; format: in vivo, Aphis gossypii (Hemiptera); settings: 250 ppm, 24 h
Description: Four blue hubbard squash seeds are planted per container in vermiculite and the containers watered from the bottom. After 6 days, the two weakest plants are cut off and one cotyledon and the primary leaves are removed from each of the two remaining plants. The remaining cotyledon is infested with 100 melon aphids from a stock colony by pinning the cotyledon against an aphid-infested squash cotyledon from the colony and allowing the aphids to transfer. After transfer, the colony leaf is removed. Forty-eight hours later, the infested leaves are sprayed to wetting with formulations containing graded amounts of the insecticide using a DeVilbiss atomizer at 10 psi held at 12-15 inches from the plant. Controls consist of two infested, unsprayed squash plants and two infested plants sprayed to wetting with a formulation containing 100 ppm malathion as a reference standard. The mortality is estimated 24 hours after spraying by observation using a 10 power dissecting microscope. The same rating scale is used as before.

Meadow Spittlebug = assay: Field trial, stomach poison test; format: in vivo
Experimental: (§1) Leaves from the infested plant are treated with different concentrations of the test compounds, either by spraying with a DeVilbiss Special Atomizer (5004) at 10 psi or by dipping the leaves in solutions containing the compound. The leaves are then allowed to air dry.
(§2) After the leaves have dryed, they are placed in plastic petri dishes (100 × 25 mm), then the insects are counted out into each dish, five or ten insects per dish depending on the number of insects available. There are one or two replicates and usually two or three rates with each compound. Mortality results are taken at 24, 48 and 72 hours. The rating scale is 0 to 9.
(§3) Using the above methods, field trials were carried out against species of 5 orders of insects. The results, which are summarized in the following tables, give the average mortality for the particular insect with a given benzimidazole for each concentration employed. […] These tables contain all results obtained during the summer trials.

[3] = system: Tarnished Plant Bug Adults; assay: Field trial, stomach poison test; format: in vivo; set-up: key: mortality rating on a 0 to 9 scale
Experimental: as §1, §2, §3

[4] = system: Unidentified Green Leafhopper; assay: Field trial, stomach poison test; format: in vivo; set-up: key: mortality rating on a 0 to 9 scale
Experimental: as §1, §2, §3

Squash Bug Adults = assay: Field trial, contact poison test; format: in vivo; set-up: key: 0-9 rating: 0 = 0-10% mortality, 9 = 91-100% mortality
Description: (§4) Infested plants are placed in 6 oz. prescription bottles filled with water to keep them from wilting. Cellucotton is wrapped around the plant stem and squeezed into the bottle neck to prevent the insects from drowning.
(§5) A DeVilbiss Special Atomizer (5004) is used at 10 psi to spray the test plant with different concentrations of compounds. The atomizer is held at arm's length to prevent blowing the insects off the host plant. After treating, the bottles are placed on a table covered with brown wrapping paper to catch the dead insects as they drop from the plant. The plants are spaced so the leaves or plants are not touching one another.
(§6) The results are read at 24, 48, and 72 hours when applicable. The rating scale is 0 to 9 where 0 = 0-10 percent and 9 = 91-100 percent mortality.
as §3

[5] = system: Southern Corn Rootworm Adults; assay: Field trial, contact poison test; format: in vivo
Description: as §4, §5, §6, §3

Yellow Mealworm Larvae = assay: Field trial, topical application; format: in vivo; set-up: key: 0 = 0-10% mortality, 9 = 91-100% mortality (0-9 scale)
Experimental: as §6
In a variation of the above test, 1 microliter of a test solution containing a predetermined number of micrograms of benzimidazole was applied directly to larvae or adult insects.
as §3

[6] = system: Southern Corn Rootworm Adults; assay: Field trial, stomach poison test; format: in vivo; set-up: key: mortality rating on a 0 to 9 scale
Experimental: as §1, §2, §3

Compound: CC(COc1ccc(C(C)(C)C)cc1)OS(=O)OCCCl (stereo not drawn) [Aramite, reference compound]
- mortality rating (Two-spotted Spider Mite; 50 ppm): 7-9

Compound: Clc1ccc(C(c2ccc(Cl)cc2)C(Cl)(Cl)Cl)cc1 [DDT, reference compound]
- mortality rating (House Fly [1]; 50 ppm): 6-8

Compound: CCOC(=O)n1c(C(F)(F)F)nc2c([N+](=O)[O-])cc(C(F)(F)F)cc21 [G, ethyl 2,6-bis(trifluoromethyl)-4-nitro-1-benzimidazolecarboxylate]
- mortality rating (Oriental Cockroach; 1000 ppm): 5.5

Compound: ClC1=C(Cl)C2(Cl)C3C(Cl)C=CC3C1(Cl)C2(Cl)Cl (stereo not drawn) [Heptachlor, reference compound]
- mortality rating (Oriental Cockroach; 1000 ppm): 8-9

Compound: O=[N+]([O-])c1cc(C(F)F)cc2nc(C(F)(F)F)[nH]c12 [M, 2-trifluoromethyl-4-nitro-6-difluoromethylbenzimidazole]
- mortality rating (Mexican Bean Beetle; 50 ppm): 1.5
- mortality rating (Mexican Bean Beetle; 100 ppm): 5.5
- mortality rating (Mexican Bean Beetle; 500 ppm): 7.5
- mortality rating (Southern Armyworm): .5
- mortality rating (Two-spotted Spider Mite; 100 ppm): 6.5
- mortality rating (Two-spotted Spider Mite; 250 ppm): 8.5
- mortality rating (Milkweed Bug; 50 ppm): .5
- mortality rating (Milkweed Bug; 100 ppm): 3.5
- mortality rating (House Fly [1]; 10 ppm): 8.5
- mortality rating (House Fly [2]; 100 ppm): 5.5
- mortality rating (Oriental Cockroach; 500 ppm): 1.5
- mortality rating (Boll Weevil; 50 ppm): 1.5
- mortality rating (Boll Weevil; 250 ppm): 8.5
- mortality rating (Boll Weevil; 500 ppm): 8.5
- mortality rating (Boll Weevil; 1000 ppm): 7.5

Compound: CCOC(=O)CC(SP(=S)(OC)OC)C(=O)OCC (stereo not drawn) [Malathion, reference compound]
- mortality rating (Mexican Bean Beetle; 500 ppm): 7- 8
- mortality rating (Milkweed Bug; 500 ppm): 7-8
- mortality rating (House Fly [2]; 500 ppm): 6-7
- mortality rating (Boll Weevil; 500 ppm): 7-8

Compound: O=C(Oc1ccc([N+](=O)[O-])cc1)n1c(C(F)(F)F)nc2c([N+](=O)[O-])cc(C(F)(F)F)cc21 [N, p-nitrophenyl-4-nitro-2,6-bis(trifluoromethyl)-1-benzimidazolecarboxylate]
- mortality rating (Melon Aphid): 7.5
- mortality rating (Two-spotted Spider Mite; 1 ppm): 2.5
- mortality rating (Two-spotted Spider Mite; 5 ppm): 1.5
- mortality rating (Two-spotted Spider Mite; 500 ppm): 8.5
- mortality rating (Oriental Cockroach; 500 ppm): 4.5
- mortality rating (Oriental Cockroach; 1000 ppm): 5.5
- mortality rating (Boll Weevil; 10 ppm): 1.5
- mortality rating (Boll Weevil; 25 ppm): 3.5
- average mortality rating (Meadow Spittlebug; 10 ppm): 1
- average mortality rating (Meadow Spittlebug; 25 ppm): 1
- average mortality rating (Meadow Spittlebug; 50 ppm): 0 (0-10 percent)
- average mortality rating ([3]; 10 ppm): 3
- average mortality rating ([3]; 25 ppm): 3
- average mortality rating ([3]; 50 ppm): 3
- average mortality rating ([4]; 10 ppm): 0 (0-10 percent)
- average mortality rating ([4]; 25 ppm): 1
- average mortality rating ([4]; 50 ppm): 3
- average mortality rating (Squash Bug Adults; 125 ppm): 1
- average mortality rating (Squash Bug Adults; 250 ppm): 6
- average mortality rating (Squash Bug Adults; 500 ppm): 5
- average mortality rating (Squash Bug Adults; 750 ppm): 8
- average mortality rating ([5]; 25 ppm): 0 (0-10 percent)
- average mortality rating ([5]; 50 ppm): 5
- average mortality rating ([5]; 100 ppm): 3
- average mortality rating (Yellow Mealworm Larvae; 0.03 μg/μl): 1
- average mortality rating (Yellow Mealworm Larvae; 0.07 μg/μl): 3
- average mortality rating (Yellow Mealworm Larvae; 0.15 μg/μl): 7

Compound: mixture of 7-nitro-1-piperidinothionocarbonyl-2,5-bis(trifluoromethyl)benzimidazole and 4-nitro-1-piperidinothionocarbonyl-2,6-bis(trifluoromethyl)benzimidazole
- average mortality rating ([6]; 25 ppm): 1
- average mortality rating ([6]; 50 ppm): 7
- average mortality rating ([6]; 100 ppm): 3
- average mortality rating ([5]; 25 ppm): 0 (0-10 percent)
- average mortality rating ([5]; 50 ppm): 9 (91-100 percent mortality)
- average mortality rating ([5]; 100 ppm): 9 (91-100 percent mortality)
- average mortality rating (Yellow Mealworm Larvae; 0.03 μg/μl): 3
- average mortality rating (Yellow Mealworm Larvae; 0.07 μg/μl): 3
- average mortality rating (Yellow Mealworm Larvae; 0.15 μg/μl): 3

Compound: mixture of N-ethyl-4-nitro-2,6-bis(trifluoromethyl)thio-1-benzimidazolecarboxanilide and N-ethyl-nitro-2,5-bis(trifluoromethyl)thio-1-benzimidazolecarboxanilide
- mortality rating (Mexican Bean Beetle; 10 ppm): 1.5
- mortality rating (Mexican Bean Beetle; 25 ppm): 6 (61-70)
- mortality rating (Mexican Bean Beetle; 50 ppm): 5.5
- mortality rating (Mexican Bean Beetle; 100 ppm): 6.5
- mortality rating (Mexican Bean Beetle; 250 ppm): 9 (91-100)
- mortality rating (Mexican Bean Beetle; 500 ppm): 9 (91-100)
- mortality rating (Mexican Bean Beetle; 1000 ppm): 9 (91-100)
- mortality rating (Two-spotted Spider Mite; 1000 ppm): 5 (51-60)
- mortality rating (Milkweed Bug; 1000 ppm): 1 (11-20)
- mortality rating (House Fly [1]; 10 ppm): 6.5
- mortality rating (House Fly [1]; 25 ppm): 8.5
- mortality rating (House Fly [1]; 50 ppm): 8 (81-90)
- mortality rating (House Fly [1]; 100 ppm): 8 (81-90)
- mortality rating (House Fly [1]; 250 ppm): 9 (91-100)
- mortality rating (House Fly [1]; 500 ppm): 9 (91-100)
- mortality rating (House Fly [1]; 1000 ppm): 7 (71-80)
- mortality rating (House Fly [2]; 1000 ppm): 1 (11-20)
- mortality rating (Oriental Cockroach; 1000 ppm): 0 (0-10)
- mortality rating (Boll Weevil; 10 ppm): 0 (0-10)
- mortality rating (Boll Weevil; 25 ppm): 6.5
- mortality rating (Boll Weevil; 50 ppm): 7.5
- mortality rating (Boll Weevil; 100 ppm): 8 (81-90)
- mortality rating (Boll Weevil; 250 ppm): 8.5
- mortality rating (Boll Weevil; 500 ppm): 9 (91-100)
- mortality rating (Boll Weevil; 1000 ppm): 9 (91-100)
